According to ChEMBL document CHEMBL4715882, “Evaluation of pyrrolidine-based analog of jaspine B as potential SphK1 inhibitors against rheumatoid arthritis” (Bioorg Med Chem Lett, 2021):
Active and inactive are the calls of the source. The calls are words filed in the database; no cut-off is given here.

Key:
[1] = Antiinflammatory activity against LPS-induced HFLS-RA cells; assay type: functional, cell-based, Homo sapiens
Rattus norvegicus [2] = assay: Antiinflammatory activity against CFA-induced rheumatoid arthritis Wistar rat model assessed as decrease in IL-1beta level at 30 mg/kg, ig measured after 28 days; assay type: functional, organism-based; conditions: time 28.0 day
HFLS-RA [3] = assay: Antiinflammatory activity against LPS-induced HFLS-RA cells assessed as reduction in IL-1alpha expression; assay type: functional, cell-based; conditions: Homo sapiens, dose 5-20 µM
HFLS-RA [4] = assay: Antiinflammatory activity against LPS-induced HFLS-RA cells assessed as reduction in IL-1beta expression; assay type: functional, cell-based; conditions: Homo sapiens, dose 5-20 µM
HFLS-RA [5] = assay: Antiinflammatory activity against LPS-induced HFLS-RA cells assessed as reduction in IL-6 expression; assay type: functional, cell-based; conditions: Homo sapiens, dose 5-20 µM
HFLS-RA [6] = assay: Antiinflammatory activity against LPS-induced HFLS-RA cells assessed as reduction in TNF-alpha expression; assay type: functional, cell-based; conditions: Homo sapiens, dose 5-20 µM
Rattus norvegicus [7] = assay: Antiarthritic activity in CFA-induced rheumatoid arthritis Wistar rat model assessed as reduction in arthritis index at 30 mg/kg, ig for 28 days; assay type: functional, organism-based; conditions: time 28.0 day
Rattus norvegicus [8] = assay: Antiarthritic activity in CFA-induced rheumatoid arthritis Wistar rat model assessed as reduction in foot swelling at 30 mg/kg, ig measured after 21 to 28 days; assay type: functional, organism-based; conditions: time 21-28 day
Rattus norvegicus [9] = assay: Antiarthritic activity in CFA-induced rheumatoid arthritis Wistar rat model assessed as increase in weight at 30 mg/kg, ig measured after 14 to 28 days; assay type: functional, organism-based; conditions: time 14-28 day
Rattus norvegicus [10] = assay: Antiinflammatory activity against CFA-induced rheumatoid arthritis Wistar rat model assessed as decrease in cell infiltration at 30 mg/kg, ig after 28 days; assay type: functional, organism-based; conditions: time 28.0 day
Rattus norvegicus [11] = assay: Antiinflammatory activity against CFA-induced rheumatoid arthritis Wistar rat model assessed as decrease in TNFalpha level at 30 mg/kg, ig measured after 28 days; assay type: functional, organism-based; conditions: time 28.0 day
Rattus norvegicus [12] = assay: Antiinflammatory activity against CFA-induced rheumatoid arthritis Wistar rat model assessed as decrease in IL6 level at 30 mg/kg, ig measured after 28 days; assay type: functional, organism-based; conditions: time 28.0 day
Rattus norvegicus [13] = assay: Antiinflammatory activity against CFA-induced rheumatoid arthritis Wistar rat model assessed as decrease in spleen index at 30 mg/kg, ig measured after 28 days; assay type: functional, organism-based; conditions: time 28.0 day
Rattus norvegicus [14] = assay: Antiinflammatory activity against CFA-induced rheumatoid arthritis Wistar rat model assessed as decrease in paw swelling at 30 mg/kg, ig after 28 days; assay type: functional, organism-based; conditions: time 28.0 day
Rattus norvegicus [15] = assay: Antiinflammatory activity against CFA-induced rheumatoid arthritis Wistar rat model assessed as decrease in synovial hyperplasia at 30 mg/kg, ig after 28 days; assay type: functional, organism-based; conditions: time 28.0 day
Rattus norvegicus [16] = assay: Antiinflammatory activity against CFA-induced rheumatoid arthritis Wistar rat model assessed as decrease in cartilage damage at 30 mg/kg, ig after 28 days; assay type: functional, organism-based; conditions: time 28.0 day
Sphingosine kinase 1 = Sphingosine kinase 1 (Homo sapiens, UniProt Q9NYA1); assay: Inhibition of SphK1 (unknown origin)
Sphingosine kinase 2 = target: T1, Sphingosine kinase 2 (Homo sapiens, UniProt Q9NRA0); assay: Inhibition of SphK2 (unknown origin)
T1 sequence (Q9NRA0 whole entry): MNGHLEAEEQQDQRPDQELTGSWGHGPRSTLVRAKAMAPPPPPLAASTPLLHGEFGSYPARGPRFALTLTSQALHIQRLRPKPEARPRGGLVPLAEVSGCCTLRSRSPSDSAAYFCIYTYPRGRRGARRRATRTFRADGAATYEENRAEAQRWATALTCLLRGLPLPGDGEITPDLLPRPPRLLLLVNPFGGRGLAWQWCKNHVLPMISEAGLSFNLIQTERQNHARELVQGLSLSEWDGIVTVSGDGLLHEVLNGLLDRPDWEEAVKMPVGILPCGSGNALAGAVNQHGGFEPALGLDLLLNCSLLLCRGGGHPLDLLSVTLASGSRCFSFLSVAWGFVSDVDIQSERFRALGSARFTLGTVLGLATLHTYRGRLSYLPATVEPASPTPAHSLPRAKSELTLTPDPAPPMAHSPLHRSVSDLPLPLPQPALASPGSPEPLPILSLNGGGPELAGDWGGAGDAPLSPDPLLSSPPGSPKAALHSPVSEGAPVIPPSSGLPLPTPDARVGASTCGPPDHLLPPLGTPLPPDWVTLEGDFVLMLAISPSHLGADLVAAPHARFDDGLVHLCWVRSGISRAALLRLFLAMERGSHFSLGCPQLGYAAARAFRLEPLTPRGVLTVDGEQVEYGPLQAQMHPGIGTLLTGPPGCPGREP

Rattus norvegicus [17] = assay: Antiarthritic activity in CFA-induced rheumatoid arthritis Wistar rat model assessed as reduction in arthritis index at 3 mg/kg, ig for 28 days; assay type: functional, organism-based; conditions: time 28.0 day
Rattus norvegicus [18] = assay: Antiarthritic activity in CFA-induced rheumatoid arthritis Wistar rat model assessed as reduction in foot swelling at 3 mg/kg, ig measured after 21 to 28 days; assay type: functional, organism-based; conditions: time 21-28 day
Rattus norvegicus [19] = assay: Antiarthritic activity in CFA-induced rheumatoid arthritis Wistar rat model assessed as increase in weight at 3 mg/kg, ig measured after 14 to 28 days; assay type: functional, organism-based; conditions: time 14-28 day
Rattus norvegicus [20] = assay: Antiinflammatory activity against CFA-induced rheumatoid arthritis Wistar rat model assessed as decrease in IL-1beta level at 3 mg/kg, ig measured after 28 days; assay type: functional, organism-based; conditions: time 28.0 day
Rattus norvegicus [21] = assay: Antiinflammatory activity against CFA-induced rheumatoid arthritis Wistar rat model assessed as decrease in TNFalpha level at 3 mg/kg, ig measured after 28 days; assay type: functional, organism-based; conditions: time 28.0 day
Rattus norvegicus [22] = assay: Antiinflammatory activity against CFA-induced rheumatoid arthritis Wistar rat model assessed as decrease in IL6 level at 3 mg/kg, ig measured after 28 days; assay type: functional, organism-based; conditions: time 28.0 day
Rattus norvegicus [23] = assay: Antiinflammatory activity against CFA-induced rheumatoid arthritis Wistar rat model assessed as decrease in spleen index at 3 mg/kg, ig measured after 28 days; assay type: functional, organism-based; conditions: time 28.0 day
Rattus norvegicus [24] = assay: Antiinflammatory activity against CFA-induced rheumatoid arthritis Wistar rat model assessed as decrease in synovial hyperplasia at 3 mg/kg, ig after 28 days; assay type: functional, organism-based; conditions: time 28.0 day
Rattus norvegicus [25] = assay: Antiinflammatory activity against CFA-induced rheumatoid arthritis Wistar rat model assessed as decrease in cell infiltration at 3 mg/kg, ig after 28 days; assay type: functional, organism-based; conditions: time 28.0 day
Rattus norvegicus [26] = assay: Antiinflammatory activity against CFA-induced rheumatoid arthritis Wistar rat model assessed as decrease in cartilage damage at 3 mg/kg, ig after 28 days; assay type: functional, organism-based; conditions: time 28.0 day

Sequence of Sphingosine kinase 1 (Q9NYA1 whole entry): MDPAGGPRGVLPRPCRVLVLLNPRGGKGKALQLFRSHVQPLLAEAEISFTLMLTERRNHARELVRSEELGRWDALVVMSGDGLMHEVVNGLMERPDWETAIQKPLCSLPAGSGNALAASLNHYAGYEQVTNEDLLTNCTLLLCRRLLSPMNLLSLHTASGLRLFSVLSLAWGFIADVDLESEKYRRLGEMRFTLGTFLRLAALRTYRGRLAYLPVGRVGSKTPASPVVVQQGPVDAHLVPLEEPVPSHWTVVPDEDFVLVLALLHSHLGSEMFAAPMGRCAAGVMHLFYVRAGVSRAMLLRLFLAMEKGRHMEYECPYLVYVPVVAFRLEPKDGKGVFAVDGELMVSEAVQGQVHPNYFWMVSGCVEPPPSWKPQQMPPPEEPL

## CC(OCCCCCCCCCC[C@H]1NC[C@H](N)[C@@H]1O)c1ccc(F)cc1 (some centres not stated)
[1]
  IC50: 18.9 µM

## CCCCCCCCCCCCCC[C@H]1NC[C@H](N)[C@@H]1O [listing 1 of 3 here]
Rattus norvegicus [2]
  Activity: Active
HFLS-RA [3]
  Activity: Dose-dependent effect
HFLS-RA [4]
  Activity: Dose-dependent effect
HFLS-RA [5]
  Activity: Dose-dependent effect
HFLS-RA [6]
  Activity: Dose-dependent effect
Rattus norvegicus [7]
  Activity: Active
Rattus norvegicus [8]
  Activity: Active
Rattus norvegicus [9]
  Activity: Active
Rattus norvegicus [10]
  Activity: Active
Rattus norvegicus [11]
  Activity: Active
Rattus norvegicus [12]
  Activity: Active
Rattus norvegicus [13]
  Activity: Active
Rattus norvegicus [14]
  Activity: Active
Rattus norvegicus [15]
  Activity: Active
Rattus norvegicus [16]
  Activity: Active

## N[C@H]1CN[C@H](CCCCCCCCCCCOC2CCOCC2)[C@H]1O
[1]
  IC50: 11.2 µM

## CCCCCCCCCCCCCC[C@H]1NC[C@H](N)[C@@H]1O [listing 2 of 3 here]
[1]
  IC50: 8.64 µM
Sphingosine kinase 1
  IC50: 8.89 µM
Sphingosine kinase 2
  IC50: > 100 µM

## N[C@H]1CN[C@H](CCCCCCCCCCOCc2ccc(C(F)(F)F)cc2)[C@H]1O
[1]
  IC50: 19.6 µM

## N[C@H]1CN[C@H](CCCCCCCCCOCC2CCCCC2)[C@H]1O
[1]
  IC50: 99.7 µM

## CC(C)COCCCCCCCCCC[C@H]1NC[C@H](N)[C@@H]1O
[1]
  IC50: 18.1 µM

## Cc1c(F)c(F)c(COCCCCCCCCCC[C@H]2NC[C@H](N)[C@@H]2O)c(F)c1F
[1]
  IC50: 11.4 µM

## N#Cc1ccc(COCCCCCCCCCC[C@H]2NC[C@H](N)[C@@H]2O)cc1
[1]
  IC50: 10.2 µM

## N[C@H]1CN[C@H](CCCCCCCCCCOCc2ccc(F)cc2)[C@H]1O
[1]
  IC50: 10.7 µM

## CC(OCCCCCCCCCC[C@H]1NC[C@H](N)[C@@H]1O)c1ccccc1 (some centres not stated)
[1]
  IC50: 24.8 µM

## CCCCCCCCCCCC[C@H]1NC[C@H](N)[C@@H]1O
[1]
  IC50: 94.8 µM

## N[C@H]1CN[C@H](CCCCCCCCCCOCC2CCCCC2)[C@H]1O
[1]
  IC50: 51.2 µM

## N[C@H]1CN[C@H](CCCCCCCCCCCOCC2CCCCC2)[C@H]1O
[1]
  IC50: 46.3 µM

## Cc1ccc(-c2cc(C(F)(F)F)nn2-c2ccc(S(N)(=O)=O)cc2)cc1
Rattus norvegicus [17]
  Activity: Active
Rattus norvegicus [18]
  Activity: Active
Rattus norvegicus [19]
  Activity: Active
Rattus norvegicus [20]
  Activity: Active
Rattus norvegicus [21]
  Activity: Active
Rattus norvegicus [22]
  Activity: Active
Rattus norvegicus [23]
  Activity: Active
Rattus norvegicus [24]
  Activity: Active
Rattus norvegicus [25]
  Activity: Active
Rattus norvegicus [26]
  Activity: Active

## COc1ccc(COCCCCCCCCCC[C@H]2NC[C@H](N)[C@@H]2O)c(OC)c1
[1]
  IC50: 14.3 µM

## N[C@H]1CN[C@H](CCCCCCCCCCOO)[C@H]1O
[1]
  IC50: 116 µM

## CCCCCCCCCCCCCC[C@H]1NC[C@H](N)[C@@H]1O [listing 3 of 3 here]
[1]
  IC50: 10.7 µM
Sphingosine kinase 1
  IC50: > 100 µM
Sphingosine kinase 2
  IC50: > 100 µM

## CN(Cc1cnc2nc(N)nc(N)c2n1)c1ccc(C(=O)N[C@@H](CCC(=O)O)C(=O)O)cc1 [METHOTREXATE]
[1]
  IC50: 5.48 µM

## N[C@H]1CN[C@H](CCCCCCCCCOCc2ccccc2)[C@H]1O
[1]
  IC50: 15.1 µM
